Assay results from patent publication US20170049822A1, “METHODS OF ENHANCING STEM CELL ENGRAFTMENT” (TEXAS HEART INSTITUTE, priority 2014, published 2017).

Key:
ischemic hindlimbs [1] = assay: Live microscopy / quantitative confocal analysis of arteriolar growth in ischemic hindlimbs; type: in vivo, mice; conditions: ischemic legs
From the text: The outcomes of local delivery of CPGI2, a prostacyclin analogue, to ischemic hindlimbs were investigated. More specifically, arteriolar growth in ischemic hindlimbs was monitored in conjunction with CPGI2 treatment. Dynamic changes in the microvascular morphology of the limb region distal to the ligation where CPGI2 was applied were microscopically examined in live mice. At 7 days after treatment, structural remodeling at the arteriolar level in the CPGI2 group was more distinct than in the saline group, as shown in FIG. 3. […] More intra-arteriolar connections (solid line arrows, as shown in FIG. 3) and corkscrew extensions of arterioles (dashed line arrows, as shown in FIG. 3) developed in CPGI2-treated versus saline-treated groups. Arteriolar networks were identified by their branching out from a large feeder femoral artery or from a saphenous branch of descending genicular artery.

ischemic hindlimbs [2] = assay: Laser Doppler perfusion of ischemic hindlimbs with local CPGI2 delivery by osmotic pump; type: in vivo, mice; conditions: local delivery to ischemic thigh muscle, n=5/group
Protocol: Serial measurements of perfusion were performed with the use of a laser Doppler image device (Perimed AB, […]) at 24 hours and 3, 5, 7, and 14 days after cell injections in the cell-treated groups and at the same time points in iloprost-treated mice. Perfusion was expressed as the perfusion ratio in the ischemic compared to the contralateral, non-manipulated leg. The outcomes of local delivery of CPGI2, a prostacyclin analogue, to ischemic hindlimbs were investigated. More specifically, blood perfusion in ischemic hindlimbs was monitored in conjunction with CPGI2 treatment. An osmotic pump was implanted and a catheter was used to deliver the prostacyclin analogue CPGI2 or saline (vehicle) to the surface of the ischemic anterior thigh muscle for up to 14 days.

ischemic hindlimbs [3] = assay: Quantitative micro-CT of microvascular network in ischemic hindlimbs; type: in vivo, mice
From the text: The outcomes of local delivery of CPGI2, a prostacyclin analogue, to ischemic hindlimbs were investigated. More specifically, remodeling of microvascular network in ischemic hindlimbs was monitored in conjunction with CPGI2 treatment. High-definition, volumetric, quantitative micro-CT was used to assess the overall microvascular geometry of ischemic and contralateral non-ischemic legs 14 days after femoral occlusion and constant local administration of CPGI2 or saline. […] Similar global morphometric analyses were used to evaluate contralateral non-ischemic legs. […] To further verify the pro-arteriogenic effect of CPGI2, a quantitative histogram was generated by using micro-CT to illustrate frequency and distribution of blood vessel size in CPGI2-treated legs in comparison to saline-treated or contralateral non-ischemic legs. […] Referring to FIG. 4B, the red dashed circles show more vasculature in the thigh muscle where CPGI2 was administered as compared to the similar area where saline was administered. […] CPGI2 treatment positively affects remodeling of the microvascular network in ischemic hindlimbs. Quantitative micro-CT analyses indicate CPGI2 augments vascular growth.

[4] = tested on: hMSCs in ischemic hindlimbs of NOD/SCID mice; assay: In vivo bioluminescence imaging of hMSC retention with daily SEE drug treatment; conditions: 3 days, hMSCs preconditioned 100 nM 4 days
Protocol: The ability of stem cells to engraft in ischemic tissues in the presence of SEE was investigated. More specifically, the ability of hMSCs to engraft in ischemic hindlimbs in the presence of different SEEs was investigated. The studies were conducted in as described in Example 5, unless otherwise specified. To investigate the signaling pathways involved in prostacyclin-induced cell retention after hindlimb ischemia, hMSCs were preconditioned with either prostacyclin receptor agonist Cicaprost (100 nM) or PPARβ/δ agonist GW501516 (100 nM) for 4 days in vitro. Cells were then injected into the gastrocnemius of ischemic hindlimbs of NOD/SCID mice. After cell injection, mice were either treated daily with Cicaprost (oral gavage, LD=0.3 mg/kg/day; HD=1 mg/kg/day) or GW501516 (intra peritoneal (IP), 5 mg/kg/day). LD=low dose and HD=high dose. In vivo BLI was performed on cell-drug treated mice.

[5] = in vivo; cited from earlier work

CCCCC[C@H](O)/C=C/[C@@H]1[C@H]2C/C(=C/CCCC(=O)O)C[C@H]2C[C@H]1O [CPGI2, Carbaprostacyclin]
structural remodeling at the arteriolar level versus saline group (ischemic hindlimbs [1]; 7 days after treatment): more distinct | number of microvessels ranging in size from 15-50 m in diameter (ischemic hindlimbs [1]; quantitative confocal analysis): 38.00±2.41 /high-power field [HPF] | blood flow recovery (ischemic hindlimbs [2]; 7 days, perfusion ischemic vs contralateral leg): 58.80±5.74% | blood flow recovery (ischemic hindlimbs [2]; 14 days): 88.40±8.71% | distance between vessels (ischemic hindlimbs [3]; ischemic legs, 14 days): 6.60±0.52 mm | vascular volume (ischemic hindlimbs [3]; ischemic legs, 14 days after femoral occlusion, constant local administration): 41.28±2.22 mm^3 | small vessels, vessel diameter bins 40-60 μm, relative to saline-treated ischemic legs (ischemic hindlimbs [3]; micro-CT histogram, ischemic legs): significant increase | morphologic variables of contralateral non-ischemic legs versus saline-treated (ischemic hindlimbs [3]; non-ischemic legs, 14 days): No significant differences

CCC#CC[C@H](C)[C@H](O)C#C[C@@H]1[C@H]2C/C(=C/COCC(=O)O)C[C@H]2C[C@H]1O [Cicaprost]
bioluminescent intensity (hMSC retention) versus no drug treatment ([4]; oral gavage daily 0.3 or 1 mg/kg/day): markedly higher

Cc1cc(SCc2sc(-c3ccc(C(F)(F)F)cc3)nc2C)ccc1OCC(=O)O [GW501516]
bioluminescent intensity (hMSC retention) versus no drug treatment ([4]; intra peritoneal 5 mg/kg/day): markedly higher

CCCCC[C@H](O)/C=C/[C@@H]1[C@H]2C/C(=C/CCCC(=O)O)O[C@H]2C[C@H]1O [PGI2, prostacyclin]
circulating half-life [5]: 1 to 2 min
